From patent US9724351B2, “Compounds for the treatment of paramoxyvirus viral infections” (priority 2012, dated 2017)

Tests used:
[1] = tested on: Respiratory Syncytial Virus (RSV) long strain (ATCC#VR-26); test: RSV Antiviral Assay (CPE reduction assay); type: cell-based; conditions: human respiratory syncytial virus, 120 h; HEp-2 cells infected with RSV long strain, 5 days, CCK-8 readout; bins (Table 2: less than 1 μM; Table 3: equal to or higher than 1 μM and less than 50 μM); read-out: 50% effective concentration (EC50)
Protocol: CPE reduction assays are performed as described by Sidwell and Huffman et al., Appl. Microbiol. (1971) 22(5):797-801 with slight modifications. HEp-2 cells (ATCC#, CCL-23) are seeded at a density of 1,500 cells/30 μl/well into the 384-well cell plate(s) (Corning#3701) one day prior to the assay. Compounds are added into 384-well cell plates by Labcyte POD 810 Plate Assembler system. Each of the test compounds is provided to duplicate wells of a 384-well cell plate at final concentrations starting from 100 μM or 1 μM using ⅓ stepwise dilutions for 9 points. Quick-thaw Respiratory Syncytial Virus (RSV) long strain (ATCC#VR-26) stock in a 37° C. water bath. Place on ice until ready to use. Viruses are diluted to the concentration of 100 TCID50/30 μl with medium and 30 μl diluted RSV are added into related wells of 384-well cell plates. For each plate, sixteen wells are set aside as uninfected, untreated cell controls (CC), and nine wells per test plate receive virus only as a control for virus replication (VC). The final DMSO concentration of all wells is 1%. Place the plates at 37° C., 5% CO2 for 5 days.
After 5 days incubation, observe the CPE of cells in all wells. […] Six μl of cell counting kit-8 reagent (CCK-8, Dojindo Molecular Technologies Inc., CK04-20) are added to each well, which allows colorimetric assays to determine the number of viable cells through the dehydrogenase activity detection. After 3-4 hour incubation, the absorbance of each well is measured with a spectrophotometric plate reader at 450 nm wavelength, using a 630 nm filter as background according to manufacturer's instruction. The 50% effective concentration (EC50) is calculated by using regression analysis, based on the mean O.D. at each concentration of compound.

[2] = Cytotoxicity Determination; type: cell-based; conditions: human, HEp-2 cells, without addition of virus, CCK-8 readout, bins (Table 4: greater than 100 μM; Table 5: equal to or less than 100 μM and greater than 10 μM), read-out: 50% cytotoxicity concentration (CC50)
Protocol: In order to determine the compound cytotoxicity, in parallel, each of the compounds is applied to duplicate wells in a 384-well cell plate at serial final concentrations starting from 100 μM using ½ stepwise dilutions for 7 points without addition of virus. Incubate the cells at 37° C., 5% CO2 for 5 days. Add 6 μl CCK-8 into each well and incubate in a CO2 incubator at 37° C. for 3-4 hours. Read the plates to obtain the optical densities which are used to calculate 50% cytotoxicity concentration (CC50).

| SMILES | EC50 [1] [µM] | CC50 at 5 days [2] [µM] |
| --- | --- | --- |
| COc1ccc(C(=O)NCC(=O)N/N=C/c2c(C)[nH]c3ccccc23)cc1OC [Compound 403] | 1 to 50 | > 100 |
| COc1cc(C(=O)NCC(=O)c2cccc(-c3csc4c(F)cccc34)n2)ccc1O [Compound 1226] | 1 to 50 | 10 to 100 |
| COc1ccc(C(=O)NCC(=O)c2ccc(OC)c(-c3ccccc3C#N)n2)cc1OC [Compound 1516] | 1 to 50 | 10 to 100 |
| COc1cc(C(=O)NCC(=O)c2c[nH]c(-c3csc4c(F)cccc34)n2)ccc1OCCO [Compound 1240] | 1 to 50 | > 100 |
| COc1ccc(C(=O)NCC(=O)c2ccc(OC)c(-c3ccc(F)cc3)n2)cc1OC [Compound 1515] | < 1 | > 100 |
| CCCC/C(=N\NC(=O)CNC(=O)c1ccc(OCC)c(OC)c1)c1csc2c(F)cccc12 [Compound 462A] | < 1 | > 100 |
| CCN(CC)c1cc(C(=O)NCC(=O)N/N=C(\C)c2csc3ccccc23)ccc1OC [Compound 504] | 1 to 50 | 10 to 100 |
| COc1ccc(C(=O)NCC(=O)c2ccc(-c3csc4c(F)cccc34)o2)cc1OC [Compound 1351] | 1 to 50 | > 100 |
| COc1cc(C(=O)NCC(=O)c2ccc(OC)c(-c3ccc(F)c(CF)c3)n2)ccc1OCCO [Compound 1326] | < 1 | > 100 |
| COc1ccc(C(=O)NCC(=O)c2ccc(N(C)C)c(-c3csc4c(F)cccc34)n2)cc1OC [Compound 2101] | 1 to 50 | > 100 |
| COc1cc(C(=O)NCC(=O)c2ccc(OC)c(-c3ccc(F)c(Cl)c3)n2)ccc1OCC(C)N (stereo not drawn) [Compound 1315] | 1 to 50 | 10 to 100 |
| COc1ccc(C(=O)NCC(=O)N/N=C/c2csc3cc(F)ccc23)cc1OC [Compound 400-17] | 1 to 50 | 10 to 100 |
| CCC/C(=N\NC(=O)CNC(=O)c1ccc(OC)c(OC)c1)c1csc2ccccc12 [Compound 427] | < 1 | > 100 |
| CCOc1ccc(C(=O)NCC(=O)N/N=C(\C)c2csc3ccccc23)cc1OC [Compound 502] | < 1 | > 100 |
| CCOc1ccc(C(=O)NCC(=O)N(C)/N=C/c2csc3c(F)cccc23)cc1OC [Compound 400-25] | < 1 | > 100 |
| COc1cc(C(=O)NCC(=O)c2ccc(OC)c(-c3ccc(F)c(F)c3)n2)ccc1OCCO [Compound 1618] | < 1 | > 100 |
| C/C(=N\NC(=O)CNC(=O)c1ccc2c(c1)OC(F)(F)O2)c1csc2ccccc12 [Compound 474] | 1 to 50 | 10 to 100 |
| COc1cc(C(=O)NCC(=O)c2cccc(-c3csc4c(F)cccc34)n2)ccc1OCCn1ccnc1 [Compound 1246] | 1 to 50 | 10 to 100 |
| COc1ccc(C(=O)NCC(=O)c2ccc(OC)c(-c3ccc4scnc4c3)n2)cc1OC [Compound 1539] | 1 to 50 | > 100 |
| CCN(C)c1ccc(C(=O)NCC(=O)N/N=C(\C)c2csc3ccccc23)cc1OC [Compound 512] | 1 to 50 | 10 to 100 |
| COc1cc(C(=O)NCC(=O)c2ccc(OC)c(-c3ccc(F)c(O)c3)n2)ccc1OCCO [Compound 1328] | < 1 | > 100 |
| COc1ccc(C(=O)NCC(=O)c2ccc(OC)c(-c3ccc(C)cc3)n2)cc1OC [Compound 1530] | 1 to 50 | > 100 |
| CCc1cc(C(=O)CNC(=O)c2ccc(OCCO)c(OC)c2)nc(-c2ccc(F)cc2)c1 [Compound 2109] | < 1 | 10 to 100 |
| COc1cc(C(=O)NCC(=O)c2ccc(OC)c(-c3ccc(F)c(Cl)c3)n2)ccc1OCC(N)=O [Compound 1316] | < 1 | > 100 |

| SMILES | EC50 [1] [µM] | CC50 at 5 days [2] [µM] |
| --- | --- | --- |
| COc1cc(C(=O)NCC(=O)N/N=C(\C)c2csc3ccccc23)ccc1OC(C)C [Compound 475] | < 1 | > 100 |
| CCOc1ccc(C(=O)NCC(=O)N/N=C(\C)c2csc3ccccc23)cc1OCC [Compound 457] | < 1 | 10 to 100 |
| COc1cc(C(=O)NCC(=O)c2ccc(OC)c(-c3ccc(F)c(Br)c3)n2)ccc1OCCO [Compound 1622] | < 1 | > 100 |
| COc1ccc(C(=O)NCC(=O)c2ccc(OC)c(-c3ccnc(F)c3)n2)cc1OC [Compound 1535] | 1 to 50 | > 100 |
| COc1cc(C(=O)CNC(=O)c2ccc(OC)c(OC)c2)nc(-c2ccc(O)cc2)c1 [Compound 1401] | 1 to 50 | 10 to 100 |
| COc1ccc(C(=O)NCC(=O)c2ccc3c(n2)-c2c(sc4c(F)cccc24)CO3)cc1OC [Compound 2701] | 1 to 50 | 10 to 100 |
| COc1cc(C(=O)NCC(=O)c2ccc(OC)c(-c3ccc(F)c(Br)c3)n2)ccc1OCc1ncn[nH]1 [Compound 3903] | < 1 | > 100 |
| COc1ccc(C(=O)NCC(=O)N/N=C(\C)c2c(C)sc3ccccc23)cc1OC [Compound 413] | 1 to 50 | 10 to 100 |
| CCCC/C(=N\NC(=O)CNC(=O)c1cc(OC)c(OC)cc1Cl)c1csc2ccccc12 [Compound 247] | 1 to 50 | > 100 |
| COc1ccc(C(=O)NCC(=O)c2cccc(-c3csc4c(F)cccc34)c2)cc1OC [Compound 1218] | 1 to 50 | > 100 |
| COc1cc(C(=O)NCC(=O)c2cc(C(=O)O)cc(-c3csc4c(F)cccc34)n2)ccc1OCCO [Compound 1258] | 1 to 50 | > 100 |
| COc1ccc(C(=O)NCC(=O)N/N=C/c2csc3ccccc23)cc1OC [Compound 401] | 1 to 50 | 10 to 100 |
| COc1ccc(C(=O)NCC(=O)N/N=C2\CCNc3ccccc32)cc1OC [Compound 447] | 1 to 50 | > 100 |
| COc1cc(C(=O)NCC(=O)c2ccc(OC)c(-c3ccc(F)c(Cl)c3)n2)ccc1OCCO [Compound 1310] | < 1 |  |
| COc1cc(C(=O)NCC(=O)c2ccc(OC)c(-c3ccc(F)c(Cl)c3)n2)ccc1OCC1(N)CC1 [Compound 1307] | 1 to 50 |  |
| COc1cc(C(=O)NCC(=O)c2ccc(OC)c(-c3ccc(F)c(Cl)c3)n2)ccc1OC1CC(N)C1 (stereo not drawn) [Compound 1359] | < 1 |  |
| C#Cc1cc(C(=O)CNC(=O)c2ccc(OCCO)c(OC)c2)nc(-c2csc3c(F)cccc23)c1 [Compound 4216] | 1 to 50 |  |
| COc1cc(C(=O)NCC(=O)c2ccc(OC)c(-c3ccc(F)c(Cl)c3)n2)ccc1-c1cccnc1 [Compound 2504] | 1 to 50 |  |
| COc1cc(C(=O)NCC(=O)c2ccc(OC)c(-c3ccc(F)c(Cl)c3)n2)ccc1-c1ccncc1 [Compound 2507] | 1 to 50 |  |
| COc1ccc(C(=O)NCC(=O)c2ccc(OC)c(-c3cncc4ccccc34)n2)cc1OC [Compound 1512] | 1 to 50 |  |
| COc1cc(C(=O)NCC(=O)N/N=C/c2csc3ccccc23)ccc1Cl [Compound 215] | 1 to 50 |  |
| COc1ccc(C(=O)NCC(=O)c2ccc(OC)c(-c3ccccc3-c3ccccc3)n2)cc1OC [Compound 1523] | 1 to 50 |  |
| CCN(CC)c1ccc(C(=O)NCC(=O)N/N=C(\C)c2csc3ccccc23)cc1N(CC)CC [Compound 506] | 1 to 50 |  |
